{"source": "patent US6461997B1", "about": "“Triazole sulfones having herbicidal activity” (Monsanto Technology LLC, priority 1999, dated 2002)", "key": {"[1]": {"system": "POLCO (wild buckwheat)", "experiment": "Pre-emergence herbicidal activity, cool season", "type": "in vivo, Polygonum convolvulus", "conditions": "lowest tested rate with 80% or greater inhibition; rates 300, 100, 30, 10 g/ha; about 14 days", "how_it_was_run": "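GR80 values, pre-emergence, soil applied at 300, 100, 30, 10 g/ha. Warm regime 30/21 °C: PANMI, DIGSA. Cool regime 18/13 °C: ALOMY, POLCO. Rating ~14 d, % inhibition vs untreated.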"}, "[2]": {"system": "SASKR (russian thistle)", "experiment": "Pre-emergence herbicidal activity, cool season", "type": "in vivo, Salsola kali", "conditions": "lowest tested rate with 80% or greater inhibition; rates 300, 100, 30, 10 g/ha; about 14 days", "how_it_was_run": "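GR80 values derive from percent inhibition relative to untreated plants, read roughly 14 days after sowing and pre-emergence soil-surface treatment (compound in 50:50 acetone/water; rates typically 10, 30, 100, 300 g/ha). Warm-season weeds grew at 30/21° C day/night, cool-season ones at 18/13° C; an asterisk marks activity without reaching 80% at the highest rate.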"}, "[3]": {"system": "AMARE (redroot pigweed)", "experiment": "Pre-plant incorporated (PPI) herbicidal activity, warm season", "type": "in vivo, Amaranthus retroflexus", "conditions": "for Percent inhibition AMARE: PPI application", "protocol": "(§1) In another set of tests, the pre-plant incorporated (PPI) activity of compounds of this invention was evaluated on the same species as for the pre-emergence tests described above. In the PPI tests the following procedure, designed to simulate PPI application, was used.\n(§2) A pre-prepared topsoil mixture (described above) was placed in a pot and compacted to a depth of 1.0 to 1.25 cm from the top of the pot. Seeds of each of several monocotyledonous and dicotyledonous annual plant species were placed on top of the soil. A sufficient quantity of soil to cover the seeds and level fill the pot was weighed into an open container. A known amount of the test compound was dissolved or suspended in an organic solvent and applied by spraying to this cover soil. The cover soil was thoroughly mixed to distribute the test compound throughout the cover soil, and was then applied as a cover layer over the seeds. Untreated soil was used as a cover layer for control pots. After treatment the plants were placed in a greenhouse where they received 0.64 cm of overhead irrigation. All subsequent watering consisted of a light overhead mist and/or subirrigation as needed for germination and growth. Tables 9 and 10 below relate to warm season plant species which were placed after pre-emergence treatment in a greenhouse with a 30/21° C. day/night temperature regime. Tables 11 and 12 below relates to cool season plant species placed after pre-emergence treatment in a greenhouse or growth chamber with an 18/13° C. day/night temperature regime. Only the compounds of Examples 1, 6, 8, 11, 13 and 15-20 were included in PPI tests.\n(§3) Approximately 14 days after planting and treating, the plants were observed and herbicidal efficacy recorded as percent inhibition by comparison with untreated plants."}, "[4]": {"system": "ECHCG (barnyardgrass)", "experiment": "Pre-plant incorporated (PPI) herbicidal activity, warm season", "type": "in vivo, Echinochloa crus-galli", "conditions": "for Percent inhibition ECHCG: PPI application", "protocol": "as §1, §2, §3"}, "[5]": {"system": "PANDI (fall panicum)", "experiment": "Pre-plant incorporated (PPI) herbicidal activity, warm season", "type": "in vivo, Panicum dichotomiflorum", "conditions": "for Percent inhibition PANDI: PPI application", "protocol": "as §1, §2, §3"}, "[6]": {"system": "POLCO (wild buckwheat)", "experiment": "Pre-plant incorporated (PPI) herbicidal activity, cool season", "type": "in vivo, Polygonum convolvulus", "conditions": "for Percent inhibition POLCO: weed, PPI application", "protocol": "as §1, §2, §3"}, "[7]": {"system": "ALOMY (blackgrass)", "experiment": "Pre-plant incorporated (PPI) herbicidal activity, cool season", "type": "in vivo, Alopecurus myosuroides", "conditions": "for Percent inhibition ALOMY: weed, PPI application", "protocol": "as §1, §2, §3"}, "[8]": {"system": "XANST (cocklebur)", "experiment": "Pre-plant incorporated (PPI) herbicidal activity, warm season", "type": "in vivo, Xanthium strumarium", "conditions": "PPI application", "protocol": "as §1, §2, §3"}, "[9]": {"system": "wheat (TRZAW)", "experiment": "Selectivity test, PPI, cool season crop", "type": "in vivo, Triticum aestivum", "conditions": "PPI application", "protocol": "as §2, §3\n(§4) Additional pre-emergence and PPI tests were conducted by the procedures described above, on warm and cool season weed species in the presence of crop species, to assess herbicidal selectivity. Crop species included in warm season tests were corn (Zea mays, ZEAMX), rice (Oryza sativa, ORYSA) and soybean (Glycine max, GLYMX). Crop species included in cool season tests were wheat (Triticum aestivum, TRZAW), barley (Hordeunm vulgare, HORVX) and oilseed rape (Brassica napus, BRSNS).\n(§5) Tables 15 and 16 relate to pre-emergence and PPI tests respectively on warm season species. Table 17 relates to pre-emergence tests on cool season species."}, "[10]": {"system": "oilseed rape (BRSNS)", "experiment": "Selectivity test, PPI, cool season crop", "type": "in vivo, Brassica napus", "conditions": "PPI application", "protocol": "as §2, §3, §4, §5"}, "[11]": {"system": "VERPE (creeping speedwell)", "experiment": "Pre-plant incorporated (PPI) herbicidal activity, cool season", "type": "in vivo, Veronica persicaria", "conditions": "pre-plant incorporated; lowest tested rate with 80% or greater inhibition; about 14 days", "protocol": "as §1, §2, §3"}, "[12]": {"conditions": "pre-plant incorporated, lowest tested rate with 80% or greater inhibition, about 14 days"}}, "data": [{"smiles": "CCN(CC)C(=O)n1cnc(S(=O)(=O)C(F)(F)SC)n1", "note": "[Example 9]", "values": [{"measurement": "Pre-emergence activity GR80, POLCO", "setting": "[1]", "value": "[empty]"}, {"measurement": "Pre-emergence activity GR80, SASKR", "setting": "[2]", "value": 300, "unit": "g/ha"}, {"measurement": "Percent inhibition AMARE", "setting": "[3]; 30 g/ha", "value": 90, "unit": "%"}, {"measurement": "Percent inhibition AMARE", "setting": "[3]; 100 g/ha", "value": 100, "unit": "%"}, {"measurement": "Percent inhibition AMARE", "setting": "[3]; 300 g/ha", "value": 100, "unit": "%"}, {"measurement": "Percent inhibition AMARE", "setting": "[3]; 900 g/ha", "value": 100, "unit": "%"}, {"measurement": "Percent inhibition ECHCG", "setting": "[4]; 30 g/ha", "value": 90, "unit": "%"}, {"measurement": "Percent inhibition ECHCG", "setting": "[4]; 100 g/ha", "value": 100, "unit": "%"}, {"measurement": "Percent inhibition ECHCG", "setting": "[4]; 300 g/ha", "value": 100, "unit": "%"}, {"measurement": "Percent inhibition ECHCG", "setting": "[4]; 900 g/ha", "value": 100, "unit": "%"}, {"measurement": "Percent inhibition PANDI", "setting": "[5]; 30 g/ha", "value": 100, "unit": "%"}, {"measurement": "Percent inhibition PANDI", "setting": "[5]; 100 g/ha", "value": 100, "unit": "%"}, {"measurement": "Percent inhibition PANDI", "setting": "[5]; 300 g/ha", "value": 100, "unit": "%"}, {"measurement": "Percent inhibition PANDI", "setting": "[5]; 900 g/ha", "value": 100, "unit": "%"}, {"measurement": "Percent inhibition POLCO", "setting": "[6]; 30 g/ha", "value": 0, "unit": "%"}, {"measurement": "Percent inhibition POLCO", "setting": "[6]; 100 g/ha", "value": 0, "unit": "%"}, {"measurement": "Percent inhibition POLCO", "setting": "[6]; 300 g/ha", "value": 95, "unit": "%"}, {"measurement": "Percent inhibition POLCO", "setting": "[6]; 900 g/ha", "value": 100, "unit": "%"}, {"measurement": "Percent inhibition ALOMY", "setting": "[7]; 30 g/ha", "value": 40, "unit": "%"}, {"measurement": "Percent inhibition ALOMY", "setting": "[7]; 100 g/ha", "value": 95, "unit": "%"}, {"measurement": "Percent inhibition ALOMY", "setting": "[7]; 300 g/ha", "value": 100, "unit": "%"}, {"measurement": "Percent inhibition ALOMY", "setting": "[7]; 900 g/ha", "value": 100, "unit": "%"}, {"measurement": "Percent inhibition XANST", "setting": "[8]; 30 g/ha", "value": 0, "unit": "%"}, {"measurement": "Percent inhibition XANST", "setting": "[8]; 100 g/ha", "value": 0, "unit": "%"}, {"measurement": "Percent inhibition XANST", "setting": "[8]; 300 g/ha", "value": 30, "unit": "%"}, {"measurement": "Percent inhibition XANST", "setting": "[8]; 900 g/ha", "value": 60, "unit": "%"}, {"measurement": "Percent inhibition TRZAW", "setting": "[9]; 30 g/ha", "value": 0, "unit": "%"}, {"measurement": "Percent inhibition TRZAW", "setting": "[9]; 100 g/ha", "value": 0, "unit": "%"}, {"measurement": "Percent inhibition TRZAW", "setting": "[9]; 300 g/ha", "value": 10, "unit": "%"}, {"measurement": "Percent inhibition TRZAW", "setting": "[9]; 900 g/ha", "value": 70, "unit": "%"}, {"measurement": "Percent inhibition BRSNS", "setting": "[10]; 30 g/ha", "value": 50, "unit": "%"}, {"measurement": "Percent inhibition BRSNS", "setting": "[10]; 100 g/ha", "value": 95, "unit": "%"}, {"measurement": "Percent inhibition BRSNS", "setting": "[10]; 300 g/ha", "value": 100, "unit": "%"}, {"measurement": "Percent inhibition BRSNS", "setting": "[10]; 900 g/ha", "value": 100, "unit": "%"}]}, {"smiles": "CCN(CC)C(=O)n1cnc(S(=O)(=O)C(F)(F)C(=O)c2ccccc2)n1", "note": "[Example 6]", "values": [{"measurement": "Pre-emergence activity GR80, POLCO", "setting": "[1]", "value": 300, "unit": "g/ha"}, {"measurement": "Pre-emergence activity GR80, SASKR", "setting": "[2]", "value": "[empty]"}, {"measurement": "PPI activity (GR80) AMARE", "setting": "[3]; pre-plant incorporated, GR80 = lowest tested rate with 80% or greater inhibition, approx. 14 days after treating, 30/21° C.", "value": 100, "unit": "g/ha"}, {"measurement": "PPI activity GR80, ECHCG", "setting": "[4]; [12]", "value": 100, "unit": "g/ha"}, {"measurement": "PPI activity GR80, PANDI", "setting": "[5]; [12]", "value": 100, "unit": "g/ha"}, {"measurement": "PPI activity GR80, POLCO", "setting": "[6]; [12]", "value": 300, "unit": "g/ha"}, {"measurement": "PPI activity GR80, VERPE", "setting": "[11]", "value": 100, "unit": "g/ha"}, {"measurement": "PPI activity GR80, ALOMY", "setting": "[7]; [12]", "value": 300, "unit": "g/ha"}]}]}
